Source: patent publication US6120997A, “Nucleic acid binders having an hydroxyamine motif” (The Scripps Research Institute, priority 1998, dated 2000)

System: Escherichia coli (ATCC 25922)
Test: minimum inhibitory concentration, broth dilution technique
Assay type: cell-based
Conditions: E. coli, liquid culture
Excerpt: We reasoned that this modification would provide the cleanest test for probing the ionic contribution, since hydrogen bond donor abilities, electronegativity and steric demand are similar for both functional groups. In order to learn how well the model system correlates with in vivo activity, we checked the new compounds for antibacterial activity against three bacterial strains using the disc method (Kirby-Bauer technique). The minimum inhibitory concentrations (MICs) of the compounds were then determined using the broth dilution technique. For antibiotic testing protocols, see: (a) Disk testing protocols: Phillips, I.; Williams, D., in Laboratory Methods in Antimicrobial Chemotherapy, Garrod, L. (ed.) Churchill Livingstone Press: Edinburgh, 1978, pp. 3-30. (b) MIC determination: Waterworth, P. M., in Laboratory Methods in Antimicrobial Chemotherapy, Garrod, L. (ed.) Churchill Livingstone Press: Edinburgh, 1978, pp. 31-40; Barry, A. L. The Antimicrobic Susceptibility Test: Principles and Practice, Lea and Febiger: Philadelphia (1976). (c) Standards: Lorian, V., Antibiotics in Laboratory Medicine (2nd. ed.), Williams and Wilkins: Baltimore, 1986.
FIG. 39A gives the zone diameters measured for the three bacterial strains. The zone diameters measured for the strains with known antibiotics are well within the accepted limits. […] It is worth noting that some testing protocols recommend overnight growth of the cultures, rather than the minimum time required to obtain good growth of the control. MIC values were tested for several of the control antibiotics using overnight growth, and the MIC values observed were 2-4× greater than those observed for 4-6 hour growth.
Minimal Inhibitory Concentration (MIC) testing. E. coli ATCC 25922 was grown in Mueller-Hinton broth (cation-adjusted, BBL Microbiology Systems) to an optical density of approx. 0.5 (absorbance read at 600 nm), then diluted to an OD600 of 0.1. Samples of antibiotic were prepared in Mueller-Hinton broth, typically a series of 2-fold dilutions from […]. […] The absorbance of each sample was read (1=600 nm), and MIC was considered to be the lowest antibiotic concentration at which the absorbance was less than 1% of the no-antibiotic control.

How did the “antibacterial activity / MIC compared with neomycin B (in words)” value turn out when NC[C@@H]1O[C@H](O[C@H]2[C@@H](O)[C@H](O[C@@H]3[C@@H](O)[C@H](N)C[C@H](N)[C@H]3O[C@H]3O[C@H](CN)[C@@H](O)[C@H](O)[C@H]3N)O[C@@H]2CO)[C@H](N)[C@@H](O)[C@@H]1O [Neomycin B] was run?
The value was “within accepted ranges for sensitive E. coli strains”.
